Data taken from PubChem BioAssay AID2060606 (Molecular Pharmacology Branch, DTP, NCI, 2025).
Values belong to the compound of their own block, whether it stands above or below them.

Test system: 922993-354-T-J3-PDC complex spheroids, viability, % test/control
Test: Anticancer human tumor 922993-354-T-J3-PDC patient-derived endometrial carcinoma cell line growth inhibition [CLK]
Conditions: for IC50: curve of first compound; for viability, T/C: stronger effect = lower value
Method in brief: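 Multi-cell-type spheroids combined patient-derived tumor cells with HUVEC endothelial cells and human mesenchymal stem cells. Paired agents were dosed in half-log steps down from about clinical Cmax, or from 10 microM where Cmax was unknown.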

[1] = second compound 0.0316 µM, first compound 0.00316 µM
[2] = second compound 0.0316 µM, first compound 0.01 µM
[3] = second compound 0.0316 µM, first compound 0.0316 µM
[4] = second compound 0.0316 µM, first compound 0.1 µM
[5] = second compound 0.0316 µM, first compound 0.316 µM
[6] = second compound 0.0316 µM, first compound 1 µM
[7] = second compound 0.1 µM, first compound 0.00316 µM
[8] = second compound 0.1 µM, first compound 0.01 µM
[9] = second compound 0.1 µM, first compound 0.0316 µM
[10] = second compound 0.1 µM, first compound 0.1 µM
[11] = second compound 0.1 µM, first compound 0.316 µM
[12] = second compound 0.1 µM, first compound 1 µM
[13] = second compound 0.316 µM, first compound 0.00316 µM
[14] = second compound 0.316 µM, first compound 0.01 µM
[15] = second compound 0.316 µM, first compound 0.0316 µM
[16] = second compound 0.316 µM, first compound 0.1 µM
[17] = second compound 0.316 µM, first compound 0.316 µM
[18] = second compound 0.316 µM, first compound 1 µM
[19] = second compound 1 µM, first compound 0.00316 µM
[20] = second compound 1 µM, first compound 0.01 µM
[21] = second compound 1 µM, first compound 0.0316 µM
[22] = second compound 1 µM, first compound 0.1 µM
[23] = second compound 1 µM, first compound 0.316 µM
[24] = second compound 1 µM, first compound 1 µM
[25] = second compound 3.16 µM, first compound 0.00316 µM
[26] = second compound 3.16 µM, first compound 0.01 µM
[27] = second compound 3.16 µM, first compound 0.0316 µM
[28] = second compound 3.16 µM, first compound 0.1 µM
[29] = second compound 3.16 µM, first compound 0.316 µM
[30] = second compound 3.16 µM, first compound 1 µM
[31] = second compound 10 µM, first compound 0.00316 µM
[32] = second compound 10 µM, first compound 0.01 µM
[33] = second compound 10 µM, first compound 0.0316 µM
[34] = second compound 10 µM, first compound 0.1 µM
[35] = second compound 10 µM, first compound 0.316 µM
[36] = second compound 10 µM, first compound 1 µM
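Further: spheroids exposed to the agents for 7 days before readout.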

IC50 (second compound 0.0316 µM): > 1 µM
IC50 (second compound 0.1 µM): > 1 µM
IC50 (second compound 0.316 µM): 0.297 µM
IC50 (second compound 1 µM): < 0.00316 µM
IC50 (second compound 3.16 µM): < 0.00316 µM
IC50 (second compound 10 µM): < 0.00316 µM
SMILES: CCN1CCN(Cc2ccc(Nc3ncc(F)c(-c4cc(F)c5nc(C)n(C(C)C)c5c4)n3)nc2)CC1 + CNC(=O)c1ccc(Nc2nc(OC3CCCC3)c3c(-c4ccc5nc(C)oc5c4)c[nH]c3n2)c(OC)c1
viability, T/C [1]: 106%
viability, T/C [2]: 93.2%
viability, T/C [3]: 98.5%
viability, T/C [4]: 88.5%
viability, T/C [5]: 69%
viability, T/C [6]: 59.9%
viability, T/C [7]: 103%
viability, T/C [8]: 93.4%
viability, T/C [9]: 92.4%
viability, T/C [10]: 76.7%
viability, T/C [11]: 66.9%
viability, T/C [12]: 53.8%
viability, T/C [13]: 58%
viability, T/C [14]: 59.2%
viability, T/C [15]: 57.4%
viability, T/C [16]: 56.4%
viability, T/C [17]: 45.5%
viability, T/C [18]: 45.7%
viability, T/C [19]: 35.6%
viability, T/C [20]: 33.6%
viability, T/C [21]: 33.6%
viability, T/C [22]: 35.9%
viability, T/C [23]: 30.5%
viability, T/C [24]: 38.1%
viability, T/C [25]: 29.4%
viability, T/C [26]: 27.9%
viability, T/C [27]: 30.5%
viability, T/C [28]: 31.5%
viability, T/C [29]: 31.6%
viability, T/C [30]: 35.5%
viability, T/C [31]: 28.6%
viability, T/C [32]: 29.2%
viability, T/C [33]: 31.9%
viability, T/C [34]: 29%
viability, T/C [35]: 38.4%
viability, T/C [36]: 36.3%

IC50 (second compound 0.0316 µM): 0.215 µM
IC50 (second compound 0.1 µM): 0.238 µM
IC50 (second compound 0.316 µM): 0.168 µM
IC50 (second compound 1 µM): < 0.00316 µM
IC50 (second compound 3.16 µM): < 0.00316 µM
IC50 (second compound 10 µM): < 0.00316 µM
SMILES: COc1c(OCCCN2CCOCC2)ccc2c3n(c(=NC(=O)c4cnc(N)nc4)nc12)CCN3 + CNC(=O)c1ccc(Nc2nc(OC3CCCC3)c3c(-c4ccc5nc(C)oc5c4)c[nH]c3n2)c(OC)c1
viability, T/C [1]: 92.2%
viability, T/C [2]: 88.6%
viability, T/C [3]: 83.5%
viability, T/C [4]: 72.2%
viability, T/C [5]: 38.9%
viability, T/C [6]: 14.8%
viability, T/C [7]: 123%
viability, T/C [8]: 100%
viability, T/C [9]: 108%
viability, T/C [10]: 78.2%
viability, T/C [11]: 40%
viability, T/C [12]: 15%
viability, T/C [13]: 90.5%
viability, T/C [14]: 87.9%
viability, T/C [15]: 74.4%
viability, T/C [16]: 63.5%
viability, T/C [17]: 35.6%
viability, T/C [18]: 10.8%
viability, T/C [19]: 42.2%
viability, T/C [20]: 37%
viability, T/C [21]: 27.9%
viability, T/C [22]: 20.6%
viability, T/C [23]: 10.1%
viability, T/C [24]: 1.71%
viability, T/C [25]: 32.6%
viability, T/C [26]: 28.9%
viability, T/C [27]: 22.5%
viability, T/C [28]: 11.8%
viability, T/C [29]: 7.41%
viability, T/C [30]: 1.47%
viability, T/C [31]: 31.1%
viability, T/C [32]: 25.5%
viability, T/C [33]: 20%
viability, T/C [34]: 11.7%
viability, T/C [35]: 7.11%
viability, T/C [36]: 1.68%
